Data set [1] is described as follows: Absorption/emission maxima, molar absorption coefficient, absolute quantum yield and brightness of free dyes. The following applies: free dye; for ε / λabs / ΦF (PBS): PBS; for ΦF (PBS): absolute quantum yield; for ε × ΦF: brightness in PBS; for Relative brightness (PBS): relative to FNIR-Tag = 1.0; for λem: λexcitation = 740 nm. It is filed as physicochemical. Here is the method: Determination of Molar Absorption Coefficients and Absolute Fluorescence Quantum Yields: Molar absorption coefficients (c) were determined in PBS (pH 7.4) or 1:1 (v/v) MeOH/PBS (pH 7.4) using Beer's law, from plots of absorbance vs. concentration. Measurements were performed in 10 mm path length quartz cuvettes (Hellma 111-QS), maintained at 25° C., with absorbance at the highest concentration≤0.20.
(§1) Absolute quantum yields (ΦF) were measured using a Quantaurus-QY spectrometer (Hamamatsu, model C11374). This instrument is equipped with an integrating sphere to determine photons absorbed and emitted by a sample. Measurements were carried out at a concentration of 500 nM in PBS (50 mM, pH 7.4) and self-absorption corrections were performed using the instrument software.
Properties of FNIR-Tag and IRDye®-800CW are shown below in Table 1. […] Both dyes have similar absorption coefficients (ε), absolute quantum yields (ΦF) and brightness (ε×ΦF) in PBS solution, with free IR-800CW being slightly brighter

Data set [2] is described as follows: Photostability (photooxidation kinetics) of free dyes under 780 nm LED. The format is physicochemical. Conditions: for photooxidation k: 1 μM in 50 mM PBS pH 7.4, 780 nm+/−20 nm LED, 20 mW/cm^2. Here is the method: Stock solutions of 5 mM FNIR-Tag and IRDye®-800CW in DMSO were diluted into 50 mM PBS (pH=7.4) to afford 1 μM solutions. The photostability was determined using a procedure described previously using a 780 nm+/−20 nm LED at a light intensity of 20 mW/cm^2 (Nani et al., ACS Central Sci 2017, 3:329). […] As expected both of the free dyes have similar photostability.

The nature of data set [3]: Photochemical properties of panitumumab conjugates (absorption/emission spectra, H-aggregation, absolute quantum yield). It is filed as physicochemical. Here is the method:
as §1
The photochemical properties of these conjugates were analyzed by several methods. Absorption/emission curves were obtained following dilution in 50 mM PBS to yield solutions that were 500 nM in protein concentration. […] A 3 h incubation time at room temperature elapsed prior to acquisition. Conjugates were diluted 40-fold into 1:1 MeOH:50 mM PBS and their absorption spectra were recorded on a plate reader using a 384 well plate transparent in the 280 nm range (i.e. UV Co-Star μclear 384 well plate from Greiner Bio-One).
To examine the relative brightness of these conjugates on an in vivo system, phantom imaging on the Perkin-Elmer IVIS® imaging system was performed.

For a further data set, the system named is EGFR+ tumors. In words: In vivo fluorescence imaging of panitumumab conjugates, 100 μg dose. Further details: species or system athymic nude mice. The following applies: for tumor radiance output relative to IRDye-800CW conjugate: 48 h (peak accumulation), normalized to tumor size. Here is the method:
(§2) Animal Tumors Models: In vivo studies were performed according to the Frederick National Laboratory for Cancer Research (Frederick, Md.) Animal Care and Use committee guidelines. Fluorescence was longitudinally monitored employing the IVIS spectrum imager (PerkinElmer Inc, Waltham, Mass.). Imager specific Living Image software was used for image acquisition and analysis. Mice body temperature were maintained constant at 37° C. during the imaging procedure with a heated pad located under the anesthesia induction chamber, imaging table, and post procedure recovery cage. All mice were anesthetized in the induction chamber with 3% isoflurane with filtered (0.2 μm) air at 1 liter/minute flow rate for 3-4 minutes and then modified for imaging to 2% with O2 as a carrier with a flow rate of 1 liter/minute. Static 2D images were acquired with the following parameters: excitation filter 745±15 nm, emission filter 800±10 nm, f/stop2, medium binning (8×8) and auto exposure (typically 1-60 seconds). 5-week old female athymic nude mice were purchased from Charles River Laboratories International, Inc. (NCI-Frederick). MDA-MB-468 (5×10^6) in 100 μL of Hanks Balanced Salt Solution were injected the mice subcutaneously in the right dorsum. The size of the tumors were continuously monitored to reach 4-6 mm. In vivo studies were initiated 10 days post cell injection of the mice.
(§3) Data Analysis: Images were obtained using a Pearl Imager (LI-COR) using 800 nm fluorescence channel. Using white light images, the tumors were identified, and regions of interest (ROIs) were located on the tumors, livers, and necks (used as background). The intensities of ROIs were measured based on the total radiance efficiency using fluorescence images and analyzed using Living Image software. Statistics (unpaired t-test) were carried out using Prism 8.
Reduced dye aggregation was speculated to impact the pharmacokinetics. […] Fluorescence dorsal and ventral images were recorded at 0 h, 10 min, 24 h, 48 h, and 1 week post-injection. […]

The test system of the next data set is MDA-MB-468 tumor. The data set is described as follows: Dose lowering in vivo imaging study (10, 5, 1 μg) of DOL 4 conjugates. The arrangement: species or system athymic nude mice. Conditions: for tumor signal visualization over dosage range: DOL 4, 10, 5 and 1 μg tail injection. Here is the method:
as §2, §3
A dose lowering study with the goal of defining an optimal dose for FNIR-Tag conjugates was performed. Three doses, 10 μg, 5 μg, and 1 μg, which span the lower end of the doses used in prior studies, were examined. […]

The mark [4] stands for this setting: panitumumab conjugates DOL 1, 2, 4, 500 nM in PBS.

As for `COCCOCCOCCN1/C(=C/C=C2\CCCC(/C=C/C3=[N+](CCOCCOCCOC)c4ccc(S(=O)(=O)[O-])cc4C3(C)C)=C2OCCC[N+](C)(C)CCCC(=O)ON2C(=O)CCC2=O)C(C)(C)c2cc(S(=O)(=O)[O-])ccc21` [FNIR-Tag], in data set [1], the ε is given as 200 000 M^−1 · cm^−1, the λabs was 765 nm, the “ΦF (PBS)” value came out at 0.099 and the “ε × ΦF” value is on record as 19 800. Also, the “Relative brightness (PBS)” value in data set [1] worked out at 1.0. This compound also returned a photooxidation k in data set [2] of 0.04274. Also, the half-life – broadly, how long it takes for the measured level to halve – at 1 μM in data set [2] (buffer, pH 7.4) was found to be 16.2 min. The “quantum yield of the free dye” value in data set [3] (free dye) is on record as 10%. Further, the “H-aggregate peak in the absorption spectrum (~705 nm)” value in data set [3] (setting [4]) is given as “does not form a significant H-aggregate band”. Moreover, the “tumor radiance output relative to IRDye-800CW conjugate” value in the data set with EGFR+ tumors (DOL 2, 100 μg tail injection) turned out to be 2.5 ×. The “tumor radiance output relative to IRDye-800CW conjugate” value in the data set on EGFR+ tumors (DOL 4, 100 μg tail injection) is recorded as 7.1 ×.

Consider FNIR-Tag-panitumumab conjugates, for which the “absolute quantum yield of fluorescence (ΦF) with increasing labeling density” value in data set [3] (conjugates DOL 1, 2, 4, PBS, 250 nM effective dye concentration) was approximately 10%. The “fluorescent emission as function of labeling density” value in data set [3] (setting [4]) is on record as “increases with higher labeling density”. For the same compound, the “fluorescence intensity (total radiance normalized to tumor size) compared with IRDye-800CW conjugates” value in the data set with MDA-MB-468 tumor (DOL 4, 10, 5, 1 μg, 4 h to 7 days) was “significantly higher fluorescence intensity”. The “tumor signal visualization over dosage range” value in the data set on MDA-MB-468 tumor was “Clearly discernable signals”.

For `CC1(C)C(=CC=C2CCCC(C=CC3=[N+](CCCCCC(=O)[O-])c4ccc(S(=O)(=O)[O-])cc4C3(C)C)=C2Oc2ccc(S(=O)(=O)[O-])cc2)N(CCCCS(=O)(=O)[O-])c2ccc(S(=O)(=O)[O-])cc21.[Na+].[Na+].[Na+].[Na+]` [IRDye®-800CW], in data set [1], the ε is 240 000 M^−1 · cm^−1, the λabs is 774 nm, the “ΦF (PBS)” value amounted to 0.087 and the “ε × ΦF” value is recorded as 23 490. In addition, in data set [1], the “Relative brightness (PBS)” value worked out at 1.2 and the λem is recorded as 795ª nm. The same compound gave a λem in data set [1] (listed as IR-800CW) of 795 nm. In data set [2], this compound yielded a photooxidation k of 0.04463. Also, in data set [3] (setting [4]), the “fluorescent emission as function of labeling density” value is “nearly constant across the range of labeling density”. Further, the “liver uptake (liver-to-background ratio) compared with FNIR-Tag conjugates” value in the data set with EGFR+ tumors (100 μg, DOL 2 and 4, 10 min time point) is given as “significantly higher liver uptake”.

For the compound “IRDye®-800CW conjugates: panitumumab labeled with IRDye®-800CW-NHS, comparator conjugates [reference compound]”, the “absolute quantum yield of fluorescence (ΦF), end of decrease with increased labeling” value in data set [3] (antibody conjugates, high labeling, PBS, 250 nM effective dye concentration) is on record as approximately 2.5%. For the same compound, in data set [3] (antibody conjugates, low labeling, PBS, 250 nM effective dye concentration), the “absolute quantum yield of fluorescence (ΦF), start of decrease with increased labeling” value is listed as approximately 9%. In addition, the “tumor signal visualization over dosage range” value in the data set with MDA-MB-468 tumor is on record as “could not be visualized below 5 μg”.

These data come from patent US11746086B2, “Non-aggregating heptamethine cyanine fluorophores for in vivo imaging” (The USA, as represented by the Secretary, Department of …, priority 2018, dated 2023).
